Where two headings read alike, the source gives them in different places.
Key:
HBV = experiment: In vitro antiviral assay: anti-HBV replication in HepAD38 cells (extracellular HBV DNA by QPCR); format: cell-based, hepatitis B virus (genotype D, serotype ayw); conditions: Hepatitis B virus
Procedure: The anti-HBV activity of the Capsid Assembly Modulators (CAMs) was evaluated in a cell based assay utilizing the human hepatoma cell line HepAD38 (Ladner, S K., et al., 1998). HepAD38 cells were derived from the parental line, HepG2, that were stably transfected with a construct containing an HBV genome (genotype D, serotype ayw) under the control of a tetracycline repressible CMV promoter. Upon removal of tetracycline, viral pre-genomic RNA (pgRNA) and mRNAs are expressed and infectious viral particles are assembled and secreted into the culture medium providing a reliable, robust system to measure multiple steps of the HBV life cycle. Disruption of capsid formation results in reduced levels of DNA-containing virus particles that are released into the culture supernatant. To quantify the effect of CAMs on HBV replication, we developed a sensitive QPCR-based assay that measures extracellular HBV DNA levels upon treatment of HepAD38 cells with various concentrations of test compounds.
HepAD38 cells were maintained in DMEM/F12 medium containing 10% FBS, 400 μg/mL G418 and 0.3 μg/mL tetracycline (tet+ media) to maintain repression of HBV replication. To evaluate each compound, HepAD38 cells were seeded into 24-well collagen coated culture plates (Corning BioCoat) at a density of 200,000 cells per well in 1 mL of medium without tetracycline (tet-media) and allowed to adhere overnight at 37° C., 5% CO2 in a humidified incubator. The following day, media was refreshed and a dose range of each compound was prepared by performing 1 log10 serial dilutions in 100% DMSO at 200× the desired assay concentration. Dilutions were then added to the cells resulting in a final dose range of 1 μM to 10 pM and the plates were returned to the incubator. Following 7 days of incubation, culture supernatants were harvested and HBV DNA levels were evaluated by QPCR and compared to the vehicle treated control wells (i.e. DMSO alone).
To quantify HBV DNA levels, cell culture supernatants were diluted 1:10 in sterile, nuclease-free water (Gibco). The diluted supernatants were subsequently added to a PCR master mix containing 1× Roche Light Cycler Master Mix, 0.5 μM forward primer, 0.5 μM reverse primer (Fwd: 5′-[…] (SEQ ID NO 1); Rev: 5′-[…] (SEQ ID NO 2)), 0.2 μM Roche Universal Probe Library Probe 25. The volume was brought to 20 μL with nuclease-free water and amplification of the HBV target sequence was performed using a Roche LightCycler 480 QPCR instrument. PCR extended out to 45 cycles with each cycle consisting of a denaturation step at 95° C. for 10 sec., followed by an annealing step at 60° C. for 10 sec. and a brief extension step at 72° C. for 1 sec.
Extracellular HBV DNA levels, expressed in copies/mL, were determined by comparison to a standard curve (10^2-10^9 copies/mL) using the Roche LightCycler analysis software. These values were subsequently converted to percent inhibition of HBV replication by dividing the HBV DNA levels in the experimental samples with those obtained from the vehicle control (˜1-2×10^5 copies/mL). Potency, expressed as an EC50 (the effective concentration required to inhibit 50% of HBV replication), was calculated from the dose-response curve using a 4-parameter non-linear regression analysis (GraphPad Prism). The nucleoside analog inhibitor entecavir was used as a positive control to validate each assay run. The EC50 value of entecavir in the HepAD38 assay was 0.5 nM, as previously reported in the literature.

[1] = In vitro cytotoxicity assay (MTT cell viability) in HepG2 cells; format: cell-based, human; conditions: human
Procedure: To evaluate antiviral selectivity, the cytotoxic activity of each compound was determined using a standard cell viability assay performed on the parental HepG2 cell line. Cell viability was determined by measuring the conversion of 3-(4,5-dimethylthiazol-2-yl)-2,5-diphenyltetrazolium bromide (MTT) to the insoluble formazan salt crystal that occurs in live cells. Briefly, HepG2 cells were seeded in 96-well plates at a density of 20,000 cells per well in […] (complete growth medium) and allowed to adhere overnight in a 37° C., […] humidified incubator. The next day, test agents were prepared by performing 8 half-log10 serial dilutions in 100% DMSO at 200× the final desired concentration in the assay. Compounds were tested over a range of concentrations from 30 μM to 1.0 nM in the assay. HepG2 cells were incubated in the presence of various concentrations of CAMs for 7 days in a 37° C., […] humidified incubator. At the completion of the 7-day incubation period, MTT reagent was added to each well and the mixture was incubated for an additional 3-4 hours. At the completion of the incubation period, all wells were aspirated to remove the culture medium. The formazan crystals were solubilized from the cell monolayers with 100% DMSO. Plates were briefly mixed on an orbital shaker and absorbance was measured at 492 nm using a Perkin-Elmer EnVision multi-label plate reader. All absorbance values were converted to a percentage of the signal obtained from the vehicle treated controls. Absorbance values at 492 nm are directly proportional to the number of viable cells present in the sample. A CC50 value (cytotoxic concentration that results in loss of 50% cell viability) was calculated from the dose-response curve by 4-parameter, non-linear regression analysis using the GraphPad Prism software. The positive control compound, staurosporine, reduced the viability of HepG2 cells in a dose-dependent manner (CC50=100 nM).

[2] = HePAD38, 168 h, 7 days incubation, extracellular HBV DNA by QPCR, read-out: Anti-HBV EC50

Row | Compound | EC50 (HBV; [2]) [nM] | CC50 at 7 days [1] [nM] | CC50 at 7 days ([1]; positive control, HepG2 cells, MTT, read-out: CC50 (viability of HepG2 cells)) [nM] | EC50 (HBV; HePAD38, positive control, read-out: EC50 in the HepAD38 assay) [nM]
1 | Cc1cc(NC(=O)c2c(C)c(C(=O)C(=O)N[C@]3(C)C[C@H](O)C3)n(C)c2-c2nccs2)ccc1F [Example 174, N-(4-fluoro-3-methylphenyl)-5-(2-(((1s,3s)-3-hydroxy-1-methylcyclobutyl)amino)-2-oxoacetyl)-1,4-dimethyl-2-(thiazol-2-yl)-1H-pyrrole-3-carboxamide] | 500 to 1000 | > 30000 | – | –
2 | Cc1cc(NC(=O)c2c(C)c(C(=O)C(=O)NC3CC(S(C)(=O)=O)C3)n(C)c2C)ccc1F (stereo not shown) [Example 31, N-(4-fluoro-3-methylphenyl)-1,2,4-trimethyl-5-(2-(((1s,3s)-3-(methylsulfonyl)cyclobutyl)amino)-2-oxoacetyl)-1H-pyrrole-3-carboxamide] | < 50 | > 30000 | – | –
3 | Cc1cc(NC(=O)c2c(C)c(C(=O)C(=O)N[C@]3(C)C[C@H](O)C3)n(C)c2C2CCCC2)ccc1F [Example 132, 2-cyclopentyl-N-(4-fluoro-3-methylphenyl)-5-(2-(((1s,3s)-3-hydroxy-1-methylcyclobutyl)amino)-2-oxoacetyl)-1,4-dimethyl-1H-pyrrole-3-carboxamide] | 50 to 499 | > 30000 | – | –
4 | Cc1cc(NC(=O)c2c(C)c(C(=O)C(=O)N[C@H]3[C@H]4CC[C@H](C4)[C@H]3CO)n(C)c2C)ccc1F [Example 21, N-(4-fluoro-3-methylphenyl)-5-(2-(((1S,2S,3R,4R)-3-(hydroxymethyl)bicyclo[2.2.1]heptan-2-yl)amino)-2-oxoacetyl)-1,2,4-trimethyl-1H-pyrrole-3-carboxamide] | < 50 | > 30000 | – | –
5 | Cc1c(C(=O)Nc2cc(Cl)nc(Cl)c2)c(C)n(C)c1C(=O)C(=O)N[C@]1(C)CC[C@H](O)CC1 [Example 11, N-(2,6-dichloropyridin-4-yl)-5-(2-(((1s,4s)-4-hydroxy-1-methylcyclohexyl)amino)-2-oxoacetyl)-1,2,4-trimethyl-1H-pyrrole-3-carboxamide] | < 50 | > 30000 | – | –
6 | Cc1cc(NC(=O)c2c(C)c(C(=O)C(=O)N[C@H]3CC[C@@H](O)CC3)n(C)c2C2CCCC2)ccc1F [Example 134, 2-cyclopentyl-N-(4-fluoro-3-methylphenyl)-5-(2-(((1s,4s)-4-hydroxycyclohexyl)amino)-2-oxoacetyl)-1,4-dimethyl-1H-pyrrole-3-carboxamide] | 50 to 499 | > 30000 | – | –
7 | COC(=O)c1cc(NC(=O)c2c(C)c(C(=O)C(=O)NC(C)(C)C)n(C)c2C)ccc1F [Example 55, methyl 5-(5-(2-(tert-butylamino)-2-oxoacetyl)-1,2,4-trimethyl-1H-pyrrole-3-carboxamido)-2-fluorobenzoate] | > 1000 | > 30000 | – | –
8 | Cc1cc(NC(=O)c2c(C)c(C(=O)C(=O)NC3(C)CNC(=O)C34CC4)n(C)c2C)ccc1F (stereo not shown) [Example 81, N-(4-fluoro-3-methylphenyl)-1,2,4-trimethyl-5-(2-((7-methyl-4-oxo-5-azaspiro[2.4]heptan-7-yl)amino)-2-oxoacetyl)-1H-pyrrole-3-carboxamide] | < 50 | > 30000 | – | –
9 | Cc1cc(NC(=O)c2c(C)c(C(=O)C(=O)N[C@H]3CC[C@@H](O)CC3)n(C)c2-c2cccnc2)ccc1F [Example 153, N-(4-fluoro-3-methylphenyl)-5-(2-(((1s,4s)-4-hydroxycyclohexyl)amino)-2-oxoacetyl)-1,4-dimethyl-2-(pyridin-3-yl)-1H-pyrrole-3-carboxamide] | > 1000 | > 30000 | – | –
10 | Cc1csc(C2(NC(=O)c3c(C)c(C(=O)C(=O)NC(C)(C)C)n(C)c3C)CCCC2)n1 [Example 47, 5-(2-(tert-butylamino)-2-oxoacetyl)-1,2,4-trimethyl-N-(1-(4-methylthiazol-2-yl)cyclopentyl)-1H-pyrrole-3-carboxamide] | > 1000 | > 30000 | – | –
11 | CCc1c(C(=O)Nc2ccc(F)c(C)c2)c(C)n(C)c1C(=O)C(=O)N[C@H]1CC[C@@H](O)CC1 [Example 86, 4-ethyl-N-(4-fluoro-3-methylphenyl)-5-(2-(((1s,4s)-4-hydroxycyclohexyl)amino)-2-oxoacetyl)-1,2-dimethyl-1H-pyrrole-3-carboxamide] | < 50 | > 30000 | – | –
12 | CCc1c(C(=O)Nc2ccc(F)c(C)c2)c(C)n(C)c1C(=O)C(=O)N[C@]1(C)CC[C@H](O)CC1 [Example 7, 4-ethyl-N-(4-fluoro-3-methylphenyl)-5-(2-(((1s,4s)-4-hydroxy-1-methylcyclohexyl)amino)-2-oxoacetyl)-1,2-dimethyl-1H-pyrrole-3-carboxamide] | < 50 | > 30000 | – | –
13 | CCc1c(C(=O)Nc2ccc(F)c(C)c2)c(C)n(C)c1C(=O)C(=O)N[C@]1(C)C[C@H](O)C1 [Example 87, 4-ethyl-N-(4-fluoro-3-methylphenyl)-5-(2-(((1s,3s)-3-hydroxy-1-methylcyclobutyl)amino)-2-oxoacetyl)-1,2-dimethyl-1H-pyrrole-3-carboxamide] | < 50 | > 30000 | – | –
14 | Cc1cc(NC(=O)c2c(C)c(C(=O)C(=O)N[C@@H]3CC[C@H](O)CC3(C)C)n(C)c2C)ccc1F (single isomer, unassigned) [Example 142] | < 50 | > 30000 | – | –
15 | Cc1cc(NC(=O)c2c(C)c(C(=O)C(=O)NC3(CO)CCN(C(=O)c4cn(C)nc4C(F)F)CC3)n(C)c2C)ccc1F [Example 75, 5-(2-((1-(3-(difluoromethyl)-1-methyl-1H-pyrazole-4-carbonyl)-4-(hydroxymethyl)piperidin-4-yl)amino)-2-oxoacetyl)-N-(4-fluoro-3-methylphenyl)-1,2,4-trimethyl-1H-pyrrole-3-carboxamide] | < 50 | > 30000 | – | –
16 | Cc1c(C(=O)Nc2ccc(F)c(-c3nc[nH]n3)c2)c(C)n(C)c1C(=O)C(=O)NC(C)(C)C [Example 139, 5-(2-(tert-butylamino)-2-oxoacetyl)-N-(4-fluoro-3-(1H-1,2,4-triazol-3-yl)phenyl)-1,2,4-trimethyl-1H-pyrrole-3-carboxamide] | > 1000 | > 30000 | – | –
17 | CN[C@@H]1C[C@H]2O[C@@](C)([C@@H]1OC)n1c3ccccc3c3c4c(c5c6ccccc6n2c5c31)C(=O)NC4 [staurosporine, reference compound] | – | – | 100 | –
18 | C=C1[C@H](CO)[C@@H](O)C[C@@H]1n1cnc2c(=O)[nH]c(N)nc21 [entecavir, reference compound] | – | – | – | 0.5

Reference: patent US20230107941A1, “HEPATITIS B CAPSID ASSEMBLY MODULATORS” (Venatorx Pharmaceuticals, Inc., priority 2019, published 2023)
